Test results: article PMC4849045, “Hepatoprotective Limonoids from Andiroba (Carapa guianensis)” (International Journal of Molecular Sciences, 2016)
Like-named read-outs stand apart in the source and are kept apart here.

Legend:
[1] = tested on: D-GalN/LPS-induced liver injury in mice; parameters: method as in PMID 24697904; details: p.o., cited from earlier work; for Mortality: dead/total; for sALT / sAST: mean ± S.E.M.
[2] = tested on: primary cultured mouse hepatocytes; details: cited from earlier work; for Inhibition (%) of D-GalN-induced cytotoxicity: mean ± S.E.M. (n = 4)
[3] = tested on: L929 cells; parameters: method as in PMID 24697904; details: cited from earlier work; for Inhibition (%) of TNF-α-induced cytotoxicity: mean ± S.E.M. (n = 4)
[4] = tested on: D-GalN/LPS-induced liver injury in mice; assay: D-GalN/LPS-induced liver injury in mice; type: in vivo, mouse; details: 500 mg/kg, p.o.
Description: Male ddY mice (Kiwa Laboratory Animal Co., Ltd., Wakayama, Japan) were housed at a constant temperature of 23 ± 2°C and were fed a standard laboratory chow (MF, Oriental Yeast Co., Ltd., Tokyo, Japan). The animals were fasted for 24 h prior to the beginning of the experiment but were allowed free access to tap water. All experiments were performed with conscious mice unless otherwise noted. The experimental protocol was approved by the Experimental Animal Research Committee of Kindai University (KAPR-26-001, 1 April 2014).
The method described by Tiegs et al. was modified and used for this study. Curcumin [36] and silybin were used as reference compounds.

For `COc1cc(/C=C/C(=O)CC(=O)/C=C/c2ccc(O)c(OC)c2)ccc1O` [Curcumin, curcumin], the “sALT Inhibition (%)” value ([1]; 12.5 mg/kg) is given as 24.0%, the “sAST Inhibition (%)” value ([1]; 12.5 mg/kg) is given as 21.1% and the Mortality ([1]; 12.5 mg/kg) is given as 0/10. The sALT ([1]; 12.5 mg/kg) was 5024 ± 1189 Karmen Unit, the sAST ([1]; 12.5 mg/kg) was 4770 ± 1218 Karmen Unit and the “sALT Inhibition (%)” value ([1]; 25 mg/kg) was 50.9%. The “sAST Inhibition (%)” value ([1]; 25 mg/kg) was 47.8%, the Mortality ([1]; 25 mg/kg) was 0/10 and the sALT ([1]; 25 mg/kg) was 3253 ± 981 Karmen Unit. For the same compound, the sAST ([1]; 25 mg/kg) was 3177 ± 979 Karmen Unit, the “sALT Inhibition (%)” value ([1]; 50 mg/kg) was 71.2% and the “sAST Inhibition (%)” value ([1]; 50 mg/kg) was 63.8%. For the same compound, the Mortality ([1]; 50 mg/kg) was 1/10, the sALT ([1]; 50 mg/kg) was 1916 ± 483 Karmen Unit and the sAST ([1]; 50 mg/kg) was 2220 ± 563 Karmen Unit. For the same compound, the “Inhibition (%) of D-GalN-induced cytotoxicity” value ([2]; 3 µM) was 0.1 ± 3.8%, the “Inhibition (%) of D-GalN-induced cytotoxicity” value ([2]; 10 µM) was 1.1 ± 2.2% and the “Inhibition (%) of D-GalN-induced cytotoxicity” value ([2]; 30 µM) was −17.7 ± 1.3%. For the same compound, the “Inhibition (%) of D-GalN-induced cytotoxicity” value ([2]; 100 µM) was −44.3 ± 0.3% and the “Reduction of D-GalN-induced cytotoxicity (in words)” value ([2]; concentrations of up to 100 μM) was “did not reduce D-GalN-induced cytotoxicity”.
In the case of `COc1cc(C2Oc3cc([C@H]4Oc5cc(O)cc(O)c5C(=O)[C@@H]4O)ccc3OC2CO)ccc1O` (some centres unmarked) [Silybin, silybin], the “Inhibition (%) of TNF-α-induced cytotoxicity” value ([3]; 3 µM) is listed as 5.3 ± 2.8%, the “Inhibition (%) of TNF-α-induced cytotoxicity” value ([3]; 10 µM) is listed as 22.0 ± 3.8 % and the “Inhibition (%) of TNF-α-induced cytotoxicity” value ([3]; 30 µM) is listed as 48.0 ± 4.1 %. The “Inhibition (%) of TNF-α-induced cytotoxicity” value ([3]; 100 µM) was 50.8 ± 3.9 %, the IC50 ([3]; L929 cells, read-out: IC50, inhibition of TNF-α-induced decrease in cell viability) was 37.2 µM and the “sALT Inhibition (%)” value [4] was 71.9%. The “sAST Inhibition (%)” value [4] was 71.1%, the Mortality ([4]; dead/total) was 0/8 and the sALT ([4]; mean ± S.E.M.) was 1990 ± 439 Karmen Unit. The sAST ([4]; mean ± S.E.M.) was 1361 ± 191 Karmen Unit, the “Inhibition (%) of D-GalN-induced cytotoxicity” value ([2]; 3 µM) was 4.8 ± 1.1% and the “Inhibition (%) of D-GalN-induced cytotoxicity” value ([2]; 10 µM) was 7.7 ± 0.7%. The “Inhibition (%) of D-GalN-induced cytotoxicity” value ([2]; 30 µM) was 45.2 ± 8.8 %, the “Inhibition (%) of D-GalN-induced cytotoxicity” value ([2]; 100 µM) was 77.0 ± 5.5 % and the IC50 ([2]; primary mouse hepatocytes, read-out: IC50, inhibition of D-GalN-induced cytotoxicity) was 38.8 µM.
